The source of these data is patent publication US12052991B2, “Substituted pyridinyloxybenzenes and salts thereof and use thereof as herbicidal agents” (Bayer Aktiengesellschaft, priority 2018, dated 2024).

Holding throughout (format): in vivo
The subject of data set [1] is Matricaria inodora (MATIN). In words: Herbicidal post-emergence action (Table B7). Particulars: 1280 g/ha; rated visually after about 3 weeks; 100% = plants have died, 0% = like control plants. A digest of the protocol: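 Post-emergence spray, one-leaf stage (2–3 wk after sowing), sandy loam, greenhouse. WP/EC in water + 0.5% additive, 600 L/ha, 1280 or 320 g/ha. Visual % activity vs untreated after ~3 wk (0% = like control, 100% = plants dead).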

For data set [2], the system named is Matricaria inodora (MATIN). In words: Herbicidal pre-emergence action, test C (Table C7). Particulars: visual scoring after about 3 weeks, 100% = plants have died, 0% = like control plants. The method in brief:
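Greenhouse pre-emergence test: compound formulations (WP or EC) are applied at 1280 or 320 g/ha to the soil surface over sown weed seeds, with 0.5% additive in 600 L/ha water. After about 3 weeks, percent activity is assessed visually, 100% indicating dead plants.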

Data set [3] deals with Digitaria sanguinalis (DIGSA). The experiment in a line: Herbicidal pre-emergence action, test D, single sowings (Table D2). Particulars: 80 g/ha; scored visually after about 3 weeks; 100% = plants have died, 0% = like control plants. An excerpt: (§1) Seeds of monocotyledonous and dicotyledonous weed plants were laid out in plastic or organic plant pots (single sowings with one species of mono- or dicotyledonous weed plant per pot) and covered with soil. The compounds of the invention, formulated in the form of wettable powders (WP) or as emulsion concentrates (EC), were then applied to the surface of the covering soil as aqueous suspension or emulsion with addition of 0.5% additive at a water application rate equivalent to 600 l/ha (converted). After the treatment, the pots were placed in a greenhouse and kept under good growth conditions for the test plants. After about 3 weeks, the effect of the preparations was scored visually in comparison with untreated controls as percentages. For example, 100% activity=the plants have died, 0% activity=like control plants. Tables D1 to D8 below show the effects of selected compounds of the general formula (I) according to Table 1 on various harmful plants and an application rate corresponding to 80 g/ha, which were obtained by the experimental procedure mentioned above.

For data set [4], the system named is Setaria viridis (SETVI). In words: Herbicidal pre-emergence action, test D, single sowings (Table D3). Particulars: dosage 80 g/ha, scored after about 3 weeks.
From the text: as §1

The test system of data set [5] is viola tricolor (VIOTR). In words: Herbicidal pre-emergence action, test D, single sowings (Table D7). Particulars: dosage 80 g/ha, scored after about 3 weeks.
From the text: as §1

Data set [6] has as its system Veronica persica (VERPE). In words: Herbicidal pre-emergence action, test D, single sowings (Table D8). As to conditions: dosage 80 g/ha, scored after about 3 weeks.
From the text: as §1

In data set [7] the test system is corn (ZEAMX, var. Aventura). In words: Pre-emergence crop plant compatibility (Table E1). Particulars: dosage 80 g/ha, scored after about 3 weeks, 0% = like control plants.
From the text: as §1, with “crop” for “weed”, “placed” for “laid out”, “pots” for “pots (single sowings with one species of mono- or dicotyledonous weed plant per pot)”, “plants.” for “plants. Tables D1 to D8 below show the effects of selected compounds of the general formula (I) according to Table 1 on various harmful plants and an application rate corresponding to 80 g/ha, which were obtained by the experimental procedure mentioned above.”

Data set [8] relates to soybean (GLXMA, var. Sultana). In words: Pre-emergence crop plant compatibility (Table E1). Particulars: dosage 80 g/ha, scored after about 3 weeks, 0% = like control plants.
From the text: as §1, with “crop” for “weed”, “placed” for “laid out”, “pots” for “pots (single sowings with one species of mono- or dicotyledonous weed plant per pot)”, “plants.” for “plants. Tables D1 to D8 below show the effects of selected compounds of the general formula (I) according to Table 1 on various harmful plants and an application rate corresponding to 80 g/ha, which were obtained by the experimental procedure mentioned above.”

Data set [9] concerns wheat (TRZAS, var. Triso). In words: Pre-emergence crop plant compatibility (Table E1). As to conditions: dosage 80 g/ha, scored after about 3 weeks, 0% = like control plants.
From the text: as §1, with “crop” for “weed”, “placed” for “laid out”, “pots” for “pots (single sowings with one species of mono- or dicotyledonous weed plant per pot)”, “plants.” for “plants. Tables D1 to D8 below show the effects of selected compounds of the general formula (I) according to Table 1 on various harmful plants and an application rate corresponding to 80 g/ha, which were obtained by the experimental procedure mentioned above.”

The test system of data set [10] is harmful plants ALOMY, DIGSA, SETVI, ABUTH, AMARE, MATIN, VIOTR and VERPE. In words: Herbicidal pre-emergence action (test D), summary of Tables D1-D8. Particulars: application rate of 80 g of active ingredient per hectare; summary in words.
From the text: as §1, with “plants.” for “plants. Tables D1 to D8 below show the effects of selected compounds of the general formula (I) according to Table 1 on various harmful plants and an application rate corresponding to 80 g/ha, which were obtained by the experimental procedure mentioned above.”
Tables D1 to D8 below show the effects of selected compounds of the general formula (I) according to Table 1 on various harmful plants and an application rate corresponding to 80 g/ha, which were obtained by the experimental procedure mentioned above.

The structures appear in SMILES notation.

As to `Fc1cc(Cl)cnc1Oc1cccc(F)c1-c1cc(C(F)F)no1` [Example 1-19], the “Post-emergence action against Matricaria inodora (MATIN)” value in [1] is 100%. In addition, the “Pre-emergence action against Matricaria inodora (MATIN)” value in data set [2] (dosage 320 g/ha) and in [2] (dosage 1280 g/ha) was 100% in each case. Also, in data set [3], the “Pre-emergence action against Digitaria sanguinalis (DIGSA)” value turned out to be 100%. For the same molecule, in data set [4], the “Pre-emergence action against Setaria viridis (SETVI)” value came to 100%. Moreover, in data set [5], the “Pre-emergence action against viola tricolor (VIOTR)” value worked out at 100%. The “Pre-emergence action against Veronica persica (VERPE)” value in data set [6] was 100%. For the same molecule, the “Crop plant compatibility in pre-emergence, ZEAMX (damage to corn)” value in data set [7] is 10%. Also, the “Crop plant compatibility in pre-emergence, GLXMA (damage to soybean)” value in data set [8] worked out at 20%. Further, the “Crop plant compatibility in pre-emergence, TRZAS (damage to wheat)” value in data set [9] came to 30%. The “herbicidal activity against the harmful plants of Tables D1-D8 in pre-emergence treatment” value in data set [10] was “very good herbicidal activity”.
